Reference: US20100130425A1, “USE OF TOLL-LIKE RECEPTOR LIGANDS IN TREATING EXCITOTOXIC INJURY, ISCHEMIA AND/OR HYPOXIA” (Oregon Health & Science University, priority 2005, published 2010)

Legend:
[1] = system: mice subjected to bilateral renal ischemia; assay: In vivo model of renal ischemia (bilateral renal clamping), serum creatinine; set-up: species or system mouse; settings: 48 hours prior to bilateral renal clamping (45 minutes); 48 hours following reperfusion
Method: Intraperitoneal Delivery: Preconditioning agent Poly I:C (25 μg) in artificial saline or saline alone (control) was administered intraperitoneally to subject mice 72 hours prior to middle cerebral artery occlusion (MCAO; 45 minutes) as described in Example 3 or 48 hours prior to bilateral renal clamping (45 min).
Creatinine levels: To assess renal injury due to the ischemia, creatinine levels were measured 48 hours following reperfusion as follows. Mice were treated with saline or poly I:C (1.6 mg/kg; sc) 48 hrs prior to renal ischemia. Just prior to surgery blood was collected via the saphenous vien for baseline determination of creatinine levels. Bilateral ischemia was induced as follows: mice were anesthestized with 3% isoflurane and maintained at 1.5-2% throughout surgery. A midline incision was made and both kidneys exteriorized and clamps placed on the artery and veins of each kidney for 45 minutes. After ischemia, the clamps were withdrawn inducing reperfusion and the incision sutured up. Mice were euthanized 48 hr post initiation of reperfusion and blood collected. Serum levels of creatinine were determined via a commercially available immunoassay.

[2] = system: mouse cortical neuronal cultures; assay: In vitro neuronal ischemia model, treatment after OGD; type: cell-based; settings: 1 to 100 μg/ml after 3 hours OGD; analyzed 24 hours later
Method: In vitro neuronal ischemia model: Neuronal cultures were exposed to 3 hours oxygen-glucose-deprivation (OGD) treatment as described in Example 1. After OGD, cells were treated with 1 to 100 μg/ml Poly I:C. 24 hours later cells were analyzed as described in Example 1.

[3] = system: mice subjected to middle cerebral artery occlusion (MCAO); assay: In vivo ischemic/reperfusion model (MCAO), mouse model of stroke
Method: Ischemic/Reperfusion Model. […] Mice were anesthetized by halothane inhalation (4%/L O2) and maintained with 1.5%/L O2. The middle cerebral artery was blocked by a silicone-coated 8-0 monofilament nylon surgical suture that was threaded through the external carotid to the internal carotid and finally blocks the bifurcation into the MCA and anterior cerebral artery. The filament was maintained intraluminally for 45 min and then removed, thereby restoring blood flow. Cerebral blood flow (CBF) was monitored throughout the surgery by laser Doppler flowmetry (Periflow 5000; Perimed, Sweden). During and 2 hours following surgery, body temperatures was kept constant at 37° C. with a heating pad controlled by a thermostat. Body weights were monitored prior to and following MCAO.
Infarct calculations. […] Perfused brains were placed on a tissue slicer and sectioned into 1 mm thick coronal slices.

[4] = system: mouse cortical neuronal cultures
Method: In vitro mouse neuronal cultures: Cortical neuronal cultures were prepared as described Jin et al. (Neurochem. Res. 27:1105-1112, 2002) from E-16 mouse pups (C57B1/6, Jackson labs). Briefly, cortices were dissected and separated from meninges, olfactory bulbs, basal ganglia and hippocampi, and the cortices digested in 0.05% trypsin-EDTA for 15 min at 37° C. Cells were triturated and single cell suspension was plated at density of 5×10^5 cells/ml. Cells were cultured in Neurobasal A medium (Invitrogen, Carlsbad) containing 2% B27, 2 mM Glutamate. Neuronal enrichment was determined by staining for neurons, microglia and astrocytes with cell specific markers.
In vitro neuronal ischemia model: Neuronal cultures were treated with varying doses of an exemplary CpG oligonucleotide (SEQ ID NO: 1) in Neurobasal-A media supplemented with 1% Glutamax 24 hours prior to 3 hours oxygen-glucose-deprivation (OGD) treatment. OGD was performed by replacing medium with PBS containing 0.5 mM CaCl2 and 5 mM MgCl2, pH 7.4, and then placing the neuronal cultures in an anaerobic chamber (Form a Scientific) containing an atmosphere of 85% N2, 5% H2, 10% CO2 maintained at 35° C. Following OGD-treatment (3 hours), PBS was replaced with Minimum Essential Medium (MEM) and the cells returned to normoxic conditions. Percent neuronal cell death was determined by propidium iodide staining in two different fields of view in duplicate, compared to total DAPI staining in identical fields.
In vitro neuronal ischemia model: Neuronal cultures were treated with varying doses (0.1 μg/ml and 1 μg/ml) of Gardiquimod in Neurobasal-A media supplemented with 1% Glutamax 24 hours prior to 3 hours oxygen-glucose-deprivation (OGD) treatment. OGD was performed and cells analyzed as described in Example 1.
OGD was performed and cell analyzed as described in Example 1.

IFN-β = assay: Serum IFN-β in mice, immunoassay; type: in vivo, mouse; settings: 1 mg/kg, 2 hours prior to serum collection; versus CpG 0.8 mg/kg and LPS 0.4 mg/kg
Method: (§1) Mice were injected with saline, CpG (0.8 mg/kg) LPS (0.4 mg/kg) or Poly I:C (1 mg/kg) 2 hours prior to serum collection. Levels of TNF-α and IFN-β were measured using commercially available immunoassay kits.

TNF-α = assay: Serum TNF-α in mice, immunoassay; type: in vivo, mouse; settings: 1 mg/kg, 2 hours prior to serum collection
Method: as §1

human TLR9 = target: T1, human TLR9 (Homo sapiens, UniProt Q9NR96); assay: NF-κB inducible SEAP reporter in 293-hTLR9 cells; type: cell-based; settings: 5 μM, 18 hours; hydrolysis of pNpp at 405 nm
T1 construct: host or cells: HEK293 (293-hTLR9)
T1 sequence (Q9NR96 26-1032): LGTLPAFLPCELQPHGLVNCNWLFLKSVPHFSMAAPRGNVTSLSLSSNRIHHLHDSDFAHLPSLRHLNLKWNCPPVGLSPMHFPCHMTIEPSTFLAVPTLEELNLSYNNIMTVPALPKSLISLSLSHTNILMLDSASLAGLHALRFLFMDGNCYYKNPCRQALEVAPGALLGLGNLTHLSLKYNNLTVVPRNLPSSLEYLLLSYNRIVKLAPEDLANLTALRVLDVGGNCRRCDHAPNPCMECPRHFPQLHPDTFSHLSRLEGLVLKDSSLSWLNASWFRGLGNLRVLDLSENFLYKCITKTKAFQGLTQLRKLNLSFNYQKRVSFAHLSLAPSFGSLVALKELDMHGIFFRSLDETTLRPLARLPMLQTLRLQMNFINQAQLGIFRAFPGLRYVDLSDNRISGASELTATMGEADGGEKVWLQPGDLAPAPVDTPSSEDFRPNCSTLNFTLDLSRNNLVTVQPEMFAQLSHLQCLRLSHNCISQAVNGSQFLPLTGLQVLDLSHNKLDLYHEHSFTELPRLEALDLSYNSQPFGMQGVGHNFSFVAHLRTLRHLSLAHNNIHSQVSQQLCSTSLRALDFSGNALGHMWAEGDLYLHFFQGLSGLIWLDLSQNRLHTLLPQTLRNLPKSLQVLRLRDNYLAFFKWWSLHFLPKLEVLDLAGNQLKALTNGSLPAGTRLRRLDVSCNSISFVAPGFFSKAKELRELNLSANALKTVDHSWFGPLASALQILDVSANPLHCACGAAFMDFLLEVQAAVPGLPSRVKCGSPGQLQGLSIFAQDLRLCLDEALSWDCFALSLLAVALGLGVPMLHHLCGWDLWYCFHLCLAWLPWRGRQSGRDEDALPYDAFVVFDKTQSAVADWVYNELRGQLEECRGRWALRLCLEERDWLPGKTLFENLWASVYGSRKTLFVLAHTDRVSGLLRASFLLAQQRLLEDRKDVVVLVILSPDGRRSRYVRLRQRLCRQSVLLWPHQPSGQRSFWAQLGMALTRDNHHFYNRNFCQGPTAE
Method: FIG. 3 is a bar graph illustrating NF-κB induction following in vitro treatment with an exemplary CpG oligonucleotide. 293-hTLR9 cells transfected with an NFκB inducible reporter plasmid (pNifty2-SEAP) were treated with CpG (5 μM). NFκB induction of alkaline phosphatase expression is indicated as hydrolysis of pNpp at 405 nm.
Human embryonic kidney cell line HEK293 was transfected with an expressible nucleic acid encoding human TLR9 and with an NFκB reporter construct (InvivoGen). The dual transfected cells were incubated with a 5 μM CpG oligonucleotide (SEQ ID NO: 1) for 18 hours.

[5] = cited from earlier work
[6] = 0.2-1.6 mg/kg subcutaneous 72 hours prior to 60 minutes MCAO, 24 hours post MCAO

For “polyinosinic polycytidylic acid [Poly I:C]”, the “serum creatinine levels (renal injury)” value [1] was “reduced the injury to baseline levels”, the “neuroprotection, treatment after oxygen-glucose deprivation” value [2] was “induces neuroprotection” and the percent infarct ([3]; 25 μg intraperitoneally 72 hours prior to 45 minutes MCAO, TTC 72 hours following surgery) was “percent infarct was significantly decreased”. The “cell death without exposure to OGD” value ([4]; highest dose, no OGD) was “did not induce cell death”, the “neuroprotection against oxygen-glucose deprivation (cell death by PI staining)” value ([4]; mixed cortical cultures, increasing doses 24 hours prior to OGD) was “induces neuroprotection against oxygen-glucose deprivation” and the “serum IFNβ levels” value (IFN-β) was “produces significantly more IFNβ than stimulation of TLR9 or TLR4”. For the same compound, the “serum TNFα levels” value (TNF-α) was “increases TNFα levels”.

With CCOCc1nc2c(N)nc3ccccc3c2n1CC(C)(C)O [resiquimod] the infarct size ([3]; 0.8 mg/kg s.c. 72 hours prior to MCAO, 24 hours following MCAO) was “provides neuroprotection against cerebral ischemia”.

For “5′-tccatgacgttcctgacgtt-3′ [CpG oligonucleotide (SEQ ID NO: 1)]”, the “percent infarct, time course of preconditioning” value ([3]; 20 μg administered between 72 and 24 hours prior to MCAO) was “peak preconditioning”, the “percent infarct, time course of preconditioning” value ([3]; 20 μg administered up to a week prior to MCAO) was “significant preconditioning” and the percent infarct ([3]; intraperitoneal, 72 hours prior to 45 min MCAO) was “percent infarct was significantly decreased”. For the same compound, the “neuroprotection against oxygen-glucose deprivation (percent neuronal cell death)” value ([4]; treated 24 hours prior to 3 hours OGD, propidium iodide staining) was “confers neuroprotection against oxygen-glucose deprivation” and the “NFκB induction of alkaline phosphatase expression” value (human TLR9) was “produced alkaline phosphatase”.

With lipopolysaccharide [LPS] the “infarct size (neuroprotection)” value ([3]; mouse, in vivo, 0.4 mg/kg) was “no considerable neuroprotection”.

In the case of CC(C)Cn1cnc2c(N)nc3ccccc3c21 [imiquimod], the infarct size ([3]; mouse, in vivo, ip) is reported as “protects against cell death”.

In the case of CCOCc1nc2c(N)nc3ccccc3c2[nH]1 [CL097], the water solubility [5] is listed as ≥ 20 mg/mL.

For CCNCc1nc2c(N)nc3ccccc3c2n1CC(C)(C)O [Gardiquimod], the “percent infarct (% of hemisphere with infarction)” value ([3]; 0.2-1.6 mg/kg 72 hours prior to 60 minutes MCAO, TTC staining 24 hours later) was “percent infarct was significantly decreased in a dose-dependent fashion”, the focal neurological deficit [3, 6] was “reduced neurological deficits” and the general neurological deficit [3, 6] was “reduced neurological deficits”. The “neuroprotection against oxygen-glucose deprivation (% cell death)” value ([4]; 0.1 or 1 μg/ml 24 hours prior to OGD (3 hours), propidium iodide staining 24 hours following OGD) was “confers neuroprotection against oxygen-glucose deprivation”.
